Here are results for 13 compounds from article PMC7764330, “Bioassay-Guided Isolation of Anti-Alzheimer Active Components from the Aerial Parts of Hedyotis diffusa and Simultaneous Analysis for Marker Compounds” (Molecules, 2020).

The IC50 is the concentration that inhibits the measured activity by half.

Structures are written as SMILES. Values after ≈ are worked out from the molar mass of the structure shown. Where two headings read alike, the source gives them in different places.

The target of test [1] is T1, β-site amyloid precursor protein cleaving enzyme 1 (BACE1) (Homo sapiens, UniProt P56817).
T1 construct: purchased Pan Vera Co. (Madison, WI, USA)
T1 sequence (P56817 22-501 limits assumed): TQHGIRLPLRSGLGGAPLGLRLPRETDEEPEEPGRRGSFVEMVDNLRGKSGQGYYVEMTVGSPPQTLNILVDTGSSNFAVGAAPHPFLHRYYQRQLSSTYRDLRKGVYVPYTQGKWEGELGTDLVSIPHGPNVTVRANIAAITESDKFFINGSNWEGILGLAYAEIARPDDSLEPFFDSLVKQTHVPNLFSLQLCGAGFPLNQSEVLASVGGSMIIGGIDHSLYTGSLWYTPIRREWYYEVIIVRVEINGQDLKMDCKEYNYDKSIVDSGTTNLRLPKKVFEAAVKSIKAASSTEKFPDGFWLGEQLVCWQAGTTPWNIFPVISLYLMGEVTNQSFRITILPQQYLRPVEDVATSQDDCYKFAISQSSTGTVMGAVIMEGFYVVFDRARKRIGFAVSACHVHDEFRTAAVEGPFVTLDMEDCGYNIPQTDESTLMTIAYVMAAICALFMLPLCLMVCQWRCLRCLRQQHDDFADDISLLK
As to the kind of experiment: BACE1 (β-secretase) FRET enzyme assay. The format is biochemical. Conditions: mean ± SD, n = 3. The text has this:
(§1) Methanol (MeOH), ethanol (EtOH), n-hexane (Hx), dichloromethane (DCM), ethyl acetate (EA), n-butanol (BuOH) (Samchun Pure Chemical, Pyeongtaek, Gyeonggi, Korea) and distilled water were used for extraction, fractionation, and open column chromatography. Open column chromatography used silica gel 60 (40–63 μm; Merck, Darmstadt, Germany), Sephadex LH-20 (25–100 μm; Pharmacia, Stockholm, Sweden), MCI CHP 20P (Supelco, St. Louis, MO, USA), and octadecyl-silica (ODS) gel (400–500 mesh; Waters, Milford, MA, USA). Methanol-d4 (CD3OD) and dimethyl sulfoxide-d6 (DMSO-d6) were used for NMR analysis. The molecular weight was determined by ultra-high-performance liquid chromatography (UPLC) and high-resolution mass spectrometry (HRMS) by connecting an electrospray ionization hybrid linear trap-quadruple-Orbitrap MS system (ESI/LTQ-Orbitrap) to an Ultimate 3000 rapid separation liquid chromatography (RSLC) system (Thermo, Darmstadt, Germany). A TECAN Sunrise microplate reader and Infinite F200 pro (Männedorf, Zürich, Switzerland) were used for absorbance and fluorescence, respectively. High performance liquid chromatography (HPLC) was performed using Waters 2695 system pump and Waters 996 Photodiode array detector (Waters, Milford, MA, USA); data was extracted with Empower Pro 2.0 software. The separation column was a Waters Kromasil C18 column (4.6 × 250 mm, 5 μm). HPLC-grade solvents (e.g., acetonitrile and distilled water (H2O)) were purchased from J. T. Baker® (Phillipsburg, PA, USA). HPLC-grade acetic acid was purchased from Fisher Chemical (Janssen Pharmaceuticalaan, Geel, Belgium). In addition, analytical-grade dimethyl sulfoxide (DMSO), used as a solvent in the bioassay, was purchased from DEAJUNG Chemical (Siheung, Gyeonggi, Korea). Reagents and solvents, including AChE from electric eel, acetylthiocholine iodide (ATCh), BChE from equine serum, S-butyrylthiocholine iodide (BTCh), 5,5′- dithiobis [2-nitrobenzoic acid] […] The BACE1 (β-secretase) FRET assay kit was purchased from Pan Vera Co. (Madison, WI, USA).
The BACE1 enzyme assay was performed in accordance with the manufacturer’s recommended protocol, with minor modifications. Briefly, the assay mixture contained 1.0 U/mL of BACE1, 50 mM sodium acetate buffer (pH 4.5), the substrate (750 nM Rh-[…]-Quencher in 50 mM ammonium bicarbonate), and samples. […] The reaction mixture was incubated for 60 min at 25 °C in the dark. Prior to measurement, stop solution (2.5 M sodium acetate) was added to the assay mixture. […] All reactions were measured in black 96-well microplates and tested in triplicate. The percentage of inhibition (%) was obtained using the following formula: [1 − (S60 − S0)/(C60 − C0)] × 100, where C60 is the fluorescence of the control after 60 min of incubation, C0 is the initial fluorescence of the control, S60 is the fluorescence of the tested sample after 60 min of incubation, and S0 is the initial fluorescence of the tested sample. BACE1 inhibitory activity assay of each sample was presented in terms of IC50, as calculated from the log dose inhibition curve.

The target in test [2] is T2, butyrylcholinesterase (BChE) (Equus caballus, UniProt P81908).
T2 construct: BChE from equine serum; purchased Sigma-Aldrich Co. (St. Louis, MO, USA); host or cells: equine serum
T2 sequence (P81908 whole entry): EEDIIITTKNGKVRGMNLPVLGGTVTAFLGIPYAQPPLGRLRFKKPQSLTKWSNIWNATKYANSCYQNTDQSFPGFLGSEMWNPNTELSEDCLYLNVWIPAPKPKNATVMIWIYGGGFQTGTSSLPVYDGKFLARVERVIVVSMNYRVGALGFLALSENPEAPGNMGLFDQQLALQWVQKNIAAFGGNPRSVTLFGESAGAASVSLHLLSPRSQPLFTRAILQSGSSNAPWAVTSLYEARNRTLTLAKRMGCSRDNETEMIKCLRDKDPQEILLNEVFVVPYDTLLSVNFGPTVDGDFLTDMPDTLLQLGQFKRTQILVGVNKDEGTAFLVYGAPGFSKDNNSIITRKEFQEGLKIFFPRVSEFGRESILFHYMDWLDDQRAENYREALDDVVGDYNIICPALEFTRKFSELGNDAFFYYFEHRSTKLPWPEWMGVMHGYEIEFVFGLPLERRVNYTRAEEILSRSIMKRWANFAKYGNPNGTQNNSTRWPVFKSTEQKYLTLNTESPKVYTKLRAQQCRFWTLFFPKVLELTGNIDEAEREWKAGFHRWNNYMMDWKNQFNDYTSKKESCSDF
As to the kind of experiment: biochemical. To be noted: isolated compounds, mean ± SD, n = 3.
Source text: as §1
(§2) The inhibitory activities of the test samples against ChE (AChE and BChE) were evaluated using the spectrophotometric method developed in a previous study. ATCh and BTCh were used as substrates to measure the inhibitory activities of AChE and BChE, respectively. The assay mixture contained 0.1 M sodium phosphate buffer (pH 7.8), 0.3 U/mL AChE or BChE, 0.5 mM DTNB, 0.6 mM ATCh or BTCh, and the tested sample solution that were mixed and incubated for 15 min at room temperature. […] Reactions started on addition of 10 μL of DTNB and 10 μL of either ATCh or BTCh. The ChE inhibitory activity was monitored based on the formation of the yellow 5-thio-2-nitrobenzoate anion at 412 nm for 15 min that was due to the reaction of DTNB and thiocholine released from ATCh or BTCh. All reactions were measured in 96-well microplates and tested in triplicate. The percentage of inhibition (%) was estimated using the following formula: {(Ac − As)/Ac} × 100, where Ac is the enzyme activity without the test sample and As is the enzyme activity with the test sample.

For test [3], the target named is T3, acetylcholinesterase (AChE) (Electrophorus electricus, UniProt O42275).
T3 construct: purchased Sigma-Aldrich Co. (St. Louis, MO, USA)
T3 sequence (O42275 24-633): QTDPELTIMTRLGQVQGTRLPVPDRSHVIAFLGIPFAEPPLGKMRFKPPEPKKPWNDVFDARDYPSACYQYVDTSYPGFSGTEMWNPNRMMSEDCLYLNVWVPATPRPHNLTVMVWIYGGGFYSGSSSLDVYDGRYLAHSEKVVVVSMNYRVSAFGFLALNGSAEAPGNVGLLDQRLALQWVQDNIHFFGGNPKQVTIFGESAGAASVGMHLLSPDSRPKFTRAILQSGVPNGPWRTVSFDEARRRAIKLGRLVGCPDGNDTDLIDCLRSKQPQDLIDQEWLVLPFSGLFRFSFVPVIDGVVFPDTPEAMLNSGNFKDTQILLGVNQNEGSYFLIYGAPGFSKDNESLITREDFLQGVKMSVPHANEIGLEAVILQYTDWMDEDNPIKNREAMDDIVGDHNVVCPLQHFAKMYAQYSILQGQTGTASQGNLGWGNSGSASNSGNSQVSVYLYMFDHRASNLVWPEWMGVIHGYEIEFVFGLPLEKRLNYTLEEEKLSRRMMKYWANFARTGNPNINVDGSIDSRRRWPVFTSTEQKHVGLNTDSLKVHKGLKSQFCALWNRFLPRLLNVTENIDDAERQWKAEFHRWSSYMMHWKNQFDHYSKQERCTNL
In words: biochemical. The format is biochemical. To be noted: mean ± SD, n = 3.
Source text: as §1, §2

The subject of test [4] is formation of advanced glycation end-product (AGE). In words: Inhibition of formation of AGE (BSA with fructose and glucose, fluorescence). The format is biochemical. To be noted: mean ± SD, n = 3; for IC50: isolated compounds. Here is the method: The inhibitory activity of the formation of AGE was measured with a spectrophotometric method developed previously, with slight modifications. Briefly, the assay mixture contained 50 mM phosphate buffer (pH 7.4) with 0.02% sodium azide, 0.4 M fructose and glucose, bovine serum albumin (10 mg/mL), and the sample. Next, the assay mixture was incubated at 60 °C for 2 days. After incubation, 200 μL of the reaction product was measured at excitation and emission wavelengths of 350 and 450 nm, respectively. All samples and positive control (aminoguanidine) were dissolved in 10% analytical-grade DMSO at five different final concentrations. All reactions were measured in black 96-well microplates and tested in triplicate. The percentage of inhibition (%) of the formation of AGE was estimated using the following formula: {(Ac − As)/Ac} × 100, where Ac is the fluorescence of the control and As is the fluorescence of the sample. Inhibition of the formation of AGE of each sample was presented in terms of IC50, as calculated from the log dose-inhibition curve.

The test system of a further test is neuroinflammation. Also noted: method as in PMID 27623545. To be noted: for the treatment of AD; cited from earlier work.
Setting [5] is: isolated compounds, read-out: IC50 AChE.
Setting [6] is: isolated compounds, read-out: IC50 BACE1.

In the case of `COC(=O)C1=CO[C@@H](O[C@@H]2O[C@H](CO)[C@@H](O)[C@H](O)[C@H]2O)[C@@H]2C(CO)=C[C@H](OC)[C@H]12` [Compound 6, 6-O-Methyldeacetylasperulosidic acid methyl ester], the IC50 is over 500 µM in test [1] (IC50 BACE1, isolated compounds); 32.2 ± 2.8 µM in test [2] (read-out: IC50 BChE); 81.1 ± 5.58 µM in test [3] (setting [5]).

`COc1cc(/C=C/C(=O)OC[C@H]2O[C@@H](O[C@H]3[C@H](Oc4c(-c5ccc(O)c(O)c5)oc5cc(O)cc(O)c5c4=O)O[C@H](CO)[C@@H](O)[C@@H]3O)[C@H](O)[C@@H](O)[C@@H]2O)ccc1O` [Compound 10, quercetin-3-O-[2″-O-(6‴-O-E-feruloyl)-β-D-glucopyranosyl]-β-D-glucopyranoside]: the IC50 in test [1] (IC50 BACE1, isolated compounds) worked out at 4.49 ± 1.86 µM; in test [4] it was 2.71 ± 0.06 µM; in test [2] (read-out: IC50 BChE), 13.8 ± 0.37 µM; in test [3] (setting [5]) it was 46.2 ± 1.59 µM.

For `COC(=O)C1=CO[C@@H](O[C@@H]2O[C@H](CO)[C@@H](O)[C@H](O)[C@H]2O)[C@@H]2C(CO)=C[C@@H](OC(=O)/C=C/c3ccc(O)cc3)[C@H]12` [Compound 1, E-6-O-p-coumaroyl scandoside methyl ester], the half-inhibitory concentration (IC50) in test [1] (IC50 BACE1, isolated compounds) was 63.3 ± 4.56 µM; in test [4] it was 105 ± 14.5 µM; in test [3] (setting [5]) it was 304 ± 12.2 µM.

With `COc1ccc2cc3[n+](cc2c1OC)CCc1cc2c(cc1-3)OCO2` [Berberine, berberine, reference compound], the IC50 in test [3] (IC50 AChE, extract and fractions) is 0.327 µM; in test [3] (IC50 AChE, isolated compounds) it was 0.31 ± 0.01 µM.

For `COC(=O)C1=CO[C@@H](O[C@@H]2O[C@H](CO)[C@@H](O)[C@H](O)[C@H]2O)[C@@H]2C(CO)=C[C@@H](O)[C@H]12` [Compound 8, scandoside methyl ester], the IC50 in test [1] (setting [6]) was over 500 µM; in test [2] (read-out: IC50 BChE) it was 16.2 ± 2.05 µM; in test [3] (setting [5]), 158 ± 13.2 µM.

For `O=c1c(O[C@@H]2O[C@H](CO)[C@@H](O)[C@H](O)[C@H]2O[C@@H]2O[C@H](CO)[C@@H](O)[C@H](O)[C@H]2O)c(-c2ccc(O)c(O)c2)oc2cc(O)cc(O)c12` [compound β, quercetin-3-O-sophoroside], in the test with neuroinflammation, the neuroinflammation inhibitory activity entry is given as “does not show effective neuroinflammation inhibitory activity”.

On to `CC(=O)OCC1=C[C@H](O)[C@@H]2C(C(=O)O)=CO[C@@H](O[C@@H]3O[C@H](CO)[C@@H](O)[C@H](O)[C@H]3O)[C@H]12` [Compound 9, asperulosidic acid], for which the IC50 was over 500 µM in test [1] (IC50 BACE1, isolated compounds); 80.3 ± 19.8 µM in test [2] (IC50 BChE); 68.3 ± 5.11 µM in test [3] (IC50 AChE, isolated compounds).

As for `COC(=O)C1=CO[C@@H](O[C@@H]2O[C@H](CO)[C@@H](O)[C@H](O)[C@H]2O)[C@@H]2C(CO)=C[C@@H](OC(=O)/C=C/c3ccc(O)c(OC)c3)[C@H]12` [Compound 3, E-6-O-feruloyl scandoside methyl ester], the IC50 was 121 ± 11.9 µM in test [1] (IC50 BACE1, isolated compounds); 116 ± 29.4 µM in test [2] (read-out: IC50 BChE); 96.8 ± 5.29 µM in test [3] (setting [5]).

In the case of `CC(=O)OCC1=C[C@@H]2OC(=O)C3=CO[C@@H](O[C@@H]4O[C@H](CO)[C@@H](O)[C@H](O)[C@H]4O)[C@H]1[C@@H]32` [Compound 5, asperuloside], the IC50 in test [1] (IC50 BACE1, isolated compounds) is over 500 µM; in test [4], over 1000 µM; in test [2] (IC50 BChE), over 500 µM; in test [3] (IC50 AChE, isolated compounds), 259 ± 7.48 µM.

Regarding `COC(=O)C1=CO[C@@H](O[C@@H]2O[C@H](CO)[C@@H](O)[C@H](O)[C@H]2O)[C@@H]2C(CO)=C[C@H](O)[C@H]12` [Compound 4, deacetylasperulosidic acid methyl ester], the values for the half-inhibitory concentration (IC50) in test [1] (setting [6]), in test [2] (read-out: IC50 BChE) and in test [3] (setting [5]) were over 500 µM, 17.6 ± 0.78 µM and 172 ± 20.6 µM, respectively.

`N=C(N)NN` [AMG, aminoguanidine, reference compound]: in test [4] (extract and fractions), the “IC50 AGE Formation” value amounted to 131.92 ± 11.24 µg/mL (≈ 1780 µM).

Turning to `COC(=O)C1=CO[C@@H](O[C@@H]2O[C@H](CO)[C@@H](O)[C@H](O)[C@H]2O)[C@@H]2C(CO)=C[C@@H](OC(=O)/C=C/c3ccc(O)cc3)[C@H]12` [Compound 2, 6-O-p-coumaroyl scandoside methyl ester], the IC50 in test [1] (IC50 BACE1, isolated compounds) was found to be 121 ± 14.8 µM; in test [4] it was 381 ± 42.7 µM; in test [3] (setting [5]), 298 ± 22.7 µM.

In the case of `COC(=O)C1=CO[C@@H](O[C@@H]2O[C@H](CO)[C@@H](O)[C@H](O)[C@H]2O)[C@@H]2C(CO)=C[C@@H](OC)[C@H]12` [Compound 7, 6-O-Methylscandoside methyl ester], the IC50 is over 500 µM in test [1] (IC50 BACE1, isolated compounds) and 11.6 ± 0.68 µM in test [2] (read-out: IC50 BChE). Further, the “IC50 AChE” value in test [3] (isolated compounds) is “did not inhibit AChE”.
